Columns and labels:
1205-Lu melanoma cells = assay: BRAF inhibitor sensitivity of 1205-Lu cells with modulated BPTF expression; format: cell-based, human; conditions: for reduction in sensitivity to drug on overexpression of BPTF: 1205-Lu overexpressing BPTF; for increase in sensitivity of BPTF shRNA-expressing cells to drug: 1205-Lu, vs control shRNA-expressing cells
Experimental: (§1) Cell viability and colony formation were performed and cell cycle analysis was performed as described using common techniques in the art. Cells were treated with varying concentrations of vemurafenib for 72 hrs or dabrafenib (Chemitek, Indianapolis, Ind.) for 48 hrs or as indicated. DMSO was used as a vehicle.

BPTF [1] = assay: qRT-PCR of BPTF expression in B16-F10 cells; format: cell-based; conditions: B16-F10 murine melanoma cells, mRNA level
Experimental: (§2) mRNAs were assayed using the TaqMan Gene Expression Assays in accordance with the manufacturer's instructions (Applied Biosystems). TaqMan probes for BPTF, HPRT1, CCND2, BCL-XL, TWIST1, RAB14, CEBPB, CHI3L1, DLL3, OLIG2, PDGFRA and BCL2 were purchased from Applied Biosystems (Foster City, Calif.).
(§3) Selected shRNAs cloned into the pLKO1-vector were co-transfected into 293T cells along with expression vectors containing the GAG/POL, REV and VSVG genes. Lentiviruses were harvested 48 hrs after transfection. Sub-confluent human melanoma or glioblastoma cells were infected with each harvested lentiviruses in the presence of 8 μg/ml of polybrene, and were selected in 1 μg/ml of puromycin at 48 hrs post-infection in their respective culture medium. B16-F10 cells were transfected with BPTF shRNA1, BPTF shRNA 2 or Neg shRNA vectors and stable transformants were selected with 2 ug/ml of puromycin.

[2] = system: B16-F10 murine melanoma cells; assay: cDNA microarray gene expression profiling of B16-F10 clones; format: cell-based
Description: Total RNA was extracted from cells using the RNeasy kit (Qiagen, Valencia, Calif.). Ten micrograms of total RNA, along with universal mouse reference RNA (Stratagene, Santa Clara, Calif.), was converted to aminoallyl-modified cDNA by oligo(dT)-primed polymerization using SuperScript II reverse transcriptase (Invitrogen), coupled to N-hydroxysuccinimidyl esters of Cy3 or Cy5 (Amersham Pharmacia, Pittsburgh, Pa.), and then hybridized to a microarray slide as described (Haqq et al., 2005). After linear normalization, log (base 2) transformation, and supervised hierarchical clustering, the resulting cluster data table was imported into the significance analysis of microarrays software package. Delta was chosen to limit the output gene list so that 5% predicted false positives would be included.

BPTF [3] = assay: qRT-PCR of BPTF expression in 1205-Lu cells; format: cell-based; conditions: 1205-Lu human melanoma cells (mutant BRAF)
Experimental: as §2, §3

[4] = system: 1205-Lu human melanoma cells; assay: Cell cycle analysis, 1205-Lu; format: cell-based; conditions: vs control shRNA vector
Experimental: as §1

[5] = system: 1205-Lu human melanoma cells; assay: Cell survival assay, 1205-Lu; format: cell-based
Experimental: as §1

[6] = system: 1205-Lu human melanoma cells; assay: Colony formation assay, 1205-Lu; format: cell-based; conditions: p<0.02
Experimental: as §1

[7] = system: 1205-Lu human melanoma cells; assay: Apoptosis, 1205-Lu; format: cell-based; conditions: p<0.02
[8] = system: 1205-Lu human melanoma cells; assay: Matrigel invasion assay, 1205-Lu; format: cell-based
Experimental: (§4) A Matrigel assay for tumor invasion was performed using routine techniques. For B16-F10, 1205-Lu and C8161.9 cells, insert chambers were coated with 15 μl matrigel at 6 mg/ml protein, 17 μl and 7 mg/ml for C8161.9 cells and 15 μl and 5 mg/ml for 1205-Lu and U251 cell lines.

[9] = system: 1205-Lu human melanoma cells; assay: Subcutaneous tumor growth of 1205-Lu cells in nude mice; format: in vivo; conditions: 1205-Lu in nude mice, vs control shRNA-expressing cells
Experimental: (§5) All animal care was in accordance with institutional guidelines and a protocol that was approved by the University of California San Francisco Committee on Animal Research and California Pacific Medical Center Research Institute. Groups of 45-day-old female C57B1/6 (Charles River) were inoculated by tail vein injection with 30,000 B16-F10 BPTF stables cells. 1×10^6 1205-Lu cells were injected by tail vain in nude mice. For subcutaneous injection 1×10^6 1205-Lu, B16-F10, or C8161.9 cells and 2×10^6 U251 cells were injected, respectively.

[10] = system: 1205-Lu human melanoma cells; assay: Lung metastatic tumor burden after intravenous inoculation of 1205-Lu cells; format: in vivo; conditions: nude mice
Experimental: as §5

BPTF [11] = assay: qRT-PCR of BPTF expression in U251 cells; format: cell-based; conditions: U251 human GBM cells
Experimental: as §2, §3

U251 human GBM cells [12] = assay: Cell survival and colony formation, U251; format: cell-based
Experimental: as §1

U251 human GBM cells [13] = assay: Cell cycle analysis, U251; format: cell-based; conditions: U251, p<0.01
Experimental: as §1

U251 human GBM cells [14] = assay: Apoptosis, U251; format: cell-based; conditions: U251, p<0.02
U251 human GBM cells [15] = assay: Matrigel invasion assay, U251; format: cell-based
Experimental: as §4

BCL2, BCL-XL and CCND2 = assay: Expression of BCL2, BCL-XL and CCND2 in GBM cells; format: cell-based, human; conditions: GBM cells (U251)
Experimental: as §2
(§6) Western blot analysis was performed. Target proteins were detected by using specific antibodies against BPTF (Bethyl Laboratories Montgomery, TX), BCL2, and GAPDH (Santa Cruz Biotechnology, Santa Cruz, Calif.), and ERK1/2, pERK1/2, CCND2, BCL-XL, p90RSK (Cell Signaling Technology, Danvers, Mass.).

[16] = system: phosphorylated ERK1/2 and p90RSK; assay: Western blot of phosphorylated ERK1/2 and p90RSK in GBM cells; format: cell-based, human; conditions: GBM cells (U251)
Experimental: as §6

U251 human GBM cells [17] = assay: Subcutaneous U251 tumor growth in nude mice; format: in vivo; conditions: subcutaneous inoculation
Experimental: as §5

[18] = B16-F10 clones stably expressing shRNA vs control vector

CC(C)(C)c1nc(-c2cccc(NS(=O)(=O)c3c(F)cccc3F)c2F)c(-c2ccnc(N)n2)s1 [dabrafenib]
reduction in sensitivity to drug on overexpression of BPTF (1205-Lu melanoma cells): 3.4 fold | increase in sensitivity of BPTF shRNA-expressing cells to drug (1205-Lu melanoma cells): 2.8 fold

CCCS(=O)(=O)Nc1ccc(F)c(C(=O)c2c[nH]c3ncc(-c4ccc(Cl)cc4)cc23)c1F [vemurafenib]
reduction in sensitivity to drug on overexpression of BPTF (1205-Lu melanoma cells): 2.5 fold | increase in sensitivity of BPTF shRNA-expressing cells to drug (1205-Lu melanoma cells): 3.2 fold

BPTF shRNA 1: shRNA targeting BPTF, TGGCTGTGATCGGTGTCAGAATTGGTACC (SEQ ID NO:3); used for the murine cell line (listed as DNA, chemistry not fully specified)
BPTF expression (qRT-PCR) (BPTF [1]): suppressed significantly

BPTF shRNA 2: shRNA targeting BPTF, GGTGATGAAGCATAATGCTGTA ATAGAAC (SEQ ID NO:4); used for the murine cell line (GGTGATGAAGCATAATGCTGTAATAGAAC; listed as DNA, chemistry not fully specified)
BPTF expression (qRT-PCR) (BPTF [1]): suppressed significantly | Bcl-xl and Ccnd2 expression ([2]; B16-F10, microarray, confirmed by qRT-PCR and western blot): downregulated | number of genes overexpressed [2, 18]: 1008 genes | number of genes with downregulated expression [2, 18]: 27 genes

BPTF shRNA 3: shRNA targeting human BPTF, ATTTAGATTCATCATAAGGCG (SEQ ID NO:5) (listed as DNA, chemistry not fully specified)
BPTF expression (BPTF [3]): significant suppression | cell cycle distribution [4]: G1/G0 cell cycle arrest and a significant reduction in S-phase | cell survival [5]: suppression | colony formation ability [6]: suppression | apoptotic index [7]: significantly increased | invasiveness into Matrigel [8]: significant decrease | subcutaneous tumor cell growth [9]: considerably suppressed | reduction in the metastatic tumor burden in the lungs [10]: 66% | BPTF expression (BPTF [11]): Stable suppression | proliferation (cell survival and colony formation) (U251 human GBM cells [12]): significantly reduced | cell cycle distribution (U251 human GBM cells [13]): significant G1/G0 cell cycle arrest | apoptosis (U251 human GBM cells [14]): induction | invasiveness (U251 human GBM cells [15]): significantly reduced | expression of BCL2, BCL-XL and CCND2 (BCL2, BCL-XL and CCND2): suppression | phosphorylated ERK1/2 and p90RSK [16]: significant suppression | U251 tumor cell growth (U251 human GBM cells [17]): highly significant reduction

Reference: US10526662B2, “FALZ for use as a target for therapies to treat cancer” (Sutter Bay Hospitals, priority 2013, dated 2020)
